{"source": "patent US20250215029A1", "about": "(Recludix Pharma, Inc., priority 2022, published 2025)", "data": [{"biological_target": "T1, pY705-STAT3 in PBMC (Homo sapiens, UniProt P40763)", "T1 construct": "Cryopreserved Peripheral Blood Mononuclear Cells (PBMC) are from AllCells; host or cells: cryopreserved PBMC", "T1 sequence (P40763 whole entry)": "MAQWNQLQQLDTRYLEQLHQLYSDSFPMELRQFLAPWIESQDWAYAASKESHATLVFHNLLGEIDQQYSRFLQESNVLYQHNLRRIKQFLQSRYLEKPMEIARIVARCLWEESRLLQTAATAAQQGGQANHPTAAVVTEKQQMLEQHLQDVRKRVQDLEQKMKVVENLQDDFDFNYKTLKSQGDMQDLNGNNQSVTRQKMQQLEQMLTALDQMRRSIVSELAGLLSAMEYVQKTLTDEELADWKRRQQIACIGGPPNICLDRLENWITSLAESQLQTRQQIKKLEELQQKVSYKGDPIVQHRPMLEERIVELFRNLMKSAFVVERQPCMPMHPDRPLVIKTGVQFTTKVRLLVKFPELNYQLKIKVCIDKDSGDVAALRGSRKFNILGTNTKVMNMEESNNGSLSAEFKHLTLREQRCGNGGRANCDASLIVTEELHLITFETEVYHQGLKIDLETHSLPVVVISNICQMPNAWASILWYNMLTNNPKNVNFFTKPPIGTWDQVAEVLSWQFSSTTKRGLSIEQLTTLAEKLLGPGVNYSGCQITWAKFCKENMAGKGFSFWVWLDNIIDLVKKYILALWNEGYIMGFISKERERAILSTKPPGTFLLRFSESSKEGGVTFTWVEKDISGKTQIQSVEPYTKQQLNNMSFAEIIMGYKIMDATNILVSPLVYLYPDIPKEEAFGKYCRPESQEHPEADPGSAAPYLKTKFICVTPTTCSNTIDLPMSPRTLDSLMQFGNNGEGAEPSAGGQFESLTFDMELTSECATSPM", "experiment": "MSD-pSTAT-PBMC Assay (pSTAT3, IL-6 stimulated)", "type": "cell-based", "conditions": "PBMC, compound 3 hrs, then 10 ng/mL IL-6 for 10 min; Table 115; read-out: STAT3", "source_text": "Cryopreserved Peripheral Blood Mononuclear Cells (PBMC) are from AllCells. Recombinant Human IL-4 and IL-6 are from Peprotech. Mouse monoclonal anti-STAT3 antibody, rabbit monoclonal anti-pY705-STAT3 antibody, rabbit monoclonal Anti-pY641-STAT6 antibody, and lysis buffer are from Cell Signaling Technology (CST). Mouse monoclonal anti-STAT6 antibody is from BioLegend. Assay plates, blocker, and anti-rabbit secondary antibody are from Meso Scale Discovery (MSD).\nCyropreserved PBMCs were thawed out and allowed to recover overnight in IMDM+10% heat-inactivated FBS prior to plating 50,000 (STAT3) or 25,000 (STAT6) cells per well in 96-well U-bottom tissue culture plates. Cells were treated with compound for 3 hrs, then stimulated with 10 ng/mL IL-6 (STAT3) or 1 ng/mL IL-4 (STAT6) for 10 min. Cells were then spun down and washed with ice-cold PBS prior to lysing the cell pellet with 1× lysis buffer (CST) with 1× HALT protease and phosphatase inhibitor cocktail (Thermo). Lysates were transferred to and incubated overnight at 4° C. with shaking in QuickPlex 96-well high bind assay plates (MSD) pre-coated overnight with 30 μL per well of 0.6 μg/mL mouse monoclonal anti-STAT3 antibody (STAT3) or 2 μg/mL mouse monoclonal anti-STAT6 antibody (STAT6) in 1× PBS, and pre-blocked for 1 hour with 3% Blocker-A (MSD). Captured protein in the assay plates were then washed and probed with 25 μL per well of […] rabbit monoclonal anti-pY705-STAT3 antibody (STAT3) or 0.18 μg/ml rabbit monoclonal Anti-pY641-STAT6 antibody (STAT6) in 1% Blocker-A for 1 hour at room temperature with shaking, then washed and probed with 25 ul per well of 1 ug/ml Sulfo-TAG Labeled Goat Anti-Rabbit Antibody (MSD) in 1% Blocker-A for 1 hour at room temperature with shaking. Assay plates were then washed and 150 μL of 1× Read Buffer-T (MSD) was added to each well prior to reading on an SQ120 MSD Plate Reader. Assay signal from each sample was subtracted by the signal from unstimulated control wells and normalized to DMSO control wells. IC50 values were calculated using Graph Pad Prism Dose-Response Nonlinear Regression with variable slope. For both pSTAT3 and pSTAT6 A=≤100 nM; B 100-1000 nM; C=>1000-3000 nM; D=>3 μM; and NT=Not Tested.", "units": {"IC50": "nM"}, "values": [{"smiles": "CCCOC(=O)[C@H](C)N[P@](=O)(Oc1ccccc1)[C@@H](F)c1ccc2sc(C(=O)N[C@H]3C[C@@H](C)C[C@H]4CC[C@@H](C(=O)N5CC(c6cnccc6OC(C)C)C5)N4C3=O)cc2c1", "note": "(single isomer, unassigned) [Compound 1033]", "IC50": "< 100"}, {"smiles": "CCCOC(=O)[C@H](C)N[P@](=O)(Oc1ccccc1)[C@@H](F)c1ccc2sc(C(=O)N[C@H]3C[C@@H](C)C[C@H]4CC[C@@H](C(=O)N5CC(c6cnccc6OC(C)C)C5)N4C3=O)cc2c1", "note": "(single isomer, unassigned) [Compound 1034]", "IC50": "< 100"}, {"smiles": "CCCOC(=O)[C@H](C)N[P@](=O)(Oc1ccccc1)[C@@H](F)c1ccc2sc(C(=O)N[C@H]3CCC[C@H]4CC[C@@H](C(=O)N5CC(c6cnccc6C)C5)N4C3=O)cc2c1", "note": "(single isomer, unassigned) [Compound 1035]", "IC50": "< 100"}, {"smiles": "CCCOC(=O)[C@H](C)N[P@@](=O)(Oc1ccccc1)[C@@H](F)c1ccc2sc(C(=O)N[C@H]3C[C@@H](C)C[C@H]4CC[C@@H](C(=O)N5CC(c6cnccc6C)C5)N4C3=O)cc2c1", "note": "(single isomer, unassigned) [Compound 1036]", "IC50": "< 100"}, {"smiles": "CCCOC(=O)[C@H](C)N[P@@](=O)(Oc1ccccc1)[C@@H](F)c1ccc2sc(C(=O)N[C@H]3C[C@@H](C)C[C@H]4CC[C@@H](C(=O)N5CC(c6cnccc6C)C5)N4C3=O)cc2c1", "note": "(single isomer, unassigned) [Compound 1037]", "IC50": "< 100"}, {"smiles": "CCCOC(=O)[C@H](C)N[P@@](=O)(Oc1ccccc1)[C@@H](F)c1ccc2sc(C(=O)N[C@H]3CCC[C@H]4CC[C@@H](C(=O)N5CC(c6cnccc6OC)C5)N4C3=O)cc2c1", "note": "(single isomer, unassigned) [Compound 1039]", "IC50": "< 100"}, {"smiles": "CCCOC(=O)[C@H](C)N[P@@](=O)(Oc1ccccc1)[C@@H](F)c1ccc2sc(C(=O)N[C@H]3C[C@H](C)C[C@H]4CC[C@@H](C(=O)N5CC(c6cnccc6OC)C5)N4C3=O)cc2c1", "note": "(single isomer, unassigned) [Compound 1040]", "IC50": "< 100"}, {"smiles": "CCCOC(=O)[C@H](C)N[P@@](=O)(Oc1ccccc1)[C@@H](F)c1ccc2sc(C(=O)N[C@H]3C[C@H](C)C[C@H]4CC[C@@H](C(=O)N5CC(c6cnccc6OC)C5)N4C3=O)cc2c1", "note": "(single isomer, unassigned) [Compound 1041]", "IC50": "< 100"}, {"smiles": "CCCOC(=O)[C@H](C)N[P@](=O)(Oc1ccccc1)[C@H](F)c1ccc2sc(C(=O)N[C@H]3CCC[C@H]4CC[C@@H](C(=O)N5CC(c6cnccc6N6CCOCC6)C5)N4C3=O)cc2c1", "note": "(single isomer, unassigned) [Compound 1044]", "IC50": "< 100"}, {"smiles": "CCCOC(=O)[C@H](C)N[P@](=O)(Oc1ccccc1)[C@@H](F)c1ccc2sc(C(=O)N[C@H]3CCC[C@H]4CC[C@@H](C(=O)N5CC(c6cnccc6N6CCOCC6)C5)N4C3=O)cc2c1", "note": "(single isomer, unassigned) [Compound 1046]", "IC50": "100 to 1000"}, {"smiles": "CCCOC(=O)[C@H](C)N[P@](=O)(Oc1ccccc1)[C@@H](F)c1ccc2sc(C(=O)N[C@H]3CCC[C@H]4CC[C@@H](C(=O)N5CC(c6cnccc6N6CCOCC6)C5)N4C3=O)cc2c1", "note": "(single isomer, unassigned) [Compound 1047]", "IC50": "100 to 1000"}, {"smiles": "CCCOC(=O)[C@H](C)N[P@](=O)(Oc1ccccc1)[C@H](F)c1ccc2sc(C(=O)N[C@H]3C[C@@H](C)C[C@H]4CC[C@@H](C(=O)N5CC(c6cnccc6C)C5)N4C3=O)cc2c1", "note": "(single isomer, unassigned) [Compound 1048]", "IC50": "< 100"}, {"smiles": "CCCOC(=O)[C@H](C)N[P@@](=O)(Oc1ccccc1)[C@H](F)c1ccc2sc(C(=O)N[C@H]3CCC[C@H]4CC[C@@H](C(=O)N5CC(c6cnccc6C)C5)N4C3=O)cc2c1", "note": "(single isomer, unassigned) [Compound 1049]", "IC50": "< 100"}, {"smiles": "COc1ccncc1C1CN(C(=O)[C@@H]2CC[C@@H]3CCC[C@H](NC(=O)c4cc5cc([C@H](F)[P@@](=O)(N[C@@H](C)C(=O)OCc6ccccc6)Oc6ccccc6)ccc5s4)C(=O)N32)C1", "note": "(single isomer, unassigned) [Compound 1050]", "IC50": "100 to 1000"}, {"smiles": "COc1ccncc1C1CN(C(=O)[C@@H]2CC[C@@H]3CCC[C@H](NC(=O)c4cc5cc([C@H](F)[P@@](=O)(N[C@@H](C)C(=O)OCc6ccccc6)Oc6ccccc6)ccc5s4)C(=O)N32)C1", "note": "(single isomer, unassigned) [Compound 1051]", "IC50": "100 to 1000"}, {"smiles": "COc1ccncc1C1CN(C(=O)[C@@H]2CC[C@@H]3CCC[C@H](NC(=O)c4cc5cc([C@H](F)[P@@](=O)(N[C@@H](C)C(=O)OC(C)C)Oc6ccccc6)ccc5s4)C(=O)N32)C1", "note": "(single isomer, unassigned) [Compound 1052]", "IC50": "100 to 1000"}, {"smiles": "COc1ccncc1C1CN(C(=O)[C@@H]2CC[C@@H]3CCC[C@H](NC(=O)c4cc5cc([C@@H](F)[P@@](=O)(N[C@@H](C)C(=O)OC(C)C)Oc6ccccc6)ccc5s4)C(=O)N32)C1", "note": "(single isomer, unassigned) [Compound 1053]", "IC50": "< 100"}, {"smiles": "COc1ccncc1C1CN(C(=O)[C@@H]2CC[C@@H]3CCC[C@H](NC(=O)c4cc5cc([C@@H](F)[P@](=O)(N[C@@H](C)C(=O)OCc6ccccc6)Oc6ccccc6)ccc5s4)C(=O)N32)C1", "note": "(single isomer, unassigned) [Compound 1054]", "IC50": "< 100"}, {"smiles": "COc1ccncc1C1CN(C(=O)[C@@H]2CC[C@@H]3CCC[C@H](NC(=O)c4cc5cc([C@@H](F)[P@](=O)(N[C@@H](C)C(=O)OCC(C)(C)C)Oc6ccccc6)ccc5s4)C(=O)N32)C1", "note": "(single isomer, unassigned) [Compound 1056]", "IC50": "< 100"}, {"smiles": "COc1ccncc1C1CN(C(=O)[C@@H]2CC[C@@H]3CCC[C@H](NC(=O)c4cc5cc([C@@H](F)[P@](=O)(N[C@@H](C)C(=O)OCC(C)(C)C)Oc6ccccc6)ccc5s4)C(=O)N32)C1", "note": "(single isomer, unassigned) [Compound 1057]", "IC50": "< 100"}, {"smiles": "CCCOC(=O)[C@H](C)N[P@](=O)(Oc1ccccc1)[C@@H](F)c1ccc2sc(C(=O)N[C@H]3C[C@@H](C)C[C@H]4CC[C@@H](C(=O)N5CC(c6cnccc6OC)C5)N4C3=O)cc2c1", "note": "(single isomer, unassigned) [Compound 1058]", "IC50": "< 100"}, {"smiles": "CCCOC(=O)[C@H](C)N[P@](=O)(Oc1ccccc1)[C@@H](F)c1ccc2sc(C(=O)N[C@H]3C[C@@H](C)C[C@H]4CC[C@@H](C(=O)N5CC(c6cnccc6OC)C5)N4C3=O)cc2c1", "note": "(single isomer, unassigned) [Compound 1059]", "IC50": "< 100"}, {"smiles": "CCCOC(=O)[C@H](C)N[P@](=O)(Oc1ccccc1)[C@H](F)c1ccc2sc(C(=O)N[C@H]3CCC[C@H]4CC[C@@H](C(=O)N5CC(c6cnccc6N(C)C)C5)N4C3=O)cc2c1", "note": "(stereo in doubt) [Compound 953]", "IC50": "< 100"}, {"smiles": "CC(C)OC(=O)[C@H](C)NP(=O)(Oc1ccccc1)C(F)(F)c1ccc2sc(C(=O)N[C@H]3CCC[C@H]4CC[C@@H](C(=O)N5CC(c6cccnc6)C5)N4C3=O)cc2c1", "note": "(stereo partly drawn) [Compound 248, isopropyl ((difluoro(2-(((3S,6S,9aS)-5-oxo-3-(3-(pyridin-3-yl)azetidine-1-carbonyl)octahydro-1H-pyrrolo[1,2-a]azepin-6-yl)carbamoyl)benzo [b]thiophen-5-yl)methyl)(phenoxy)phosphoryl)-L-alaninate]", "IC50": "> 3000"}]}]}
